# Experimental data taken from US20090054398A1, “CHEMICAL COMPOUNDS” (ASTRAZENECA AB, priority 2006, published 2009).
# Structures can show the parent of a compound that is named as a salt.
# Test system: Notch 1 intracellular domain
# Assay: Ability of compounds to block Notch signaling: Western analysis of active Notch 1 protein (Notch 1 intracellular domain) in SUP-T1 cells
# Format: cell-based
# Details: Homo sapiens; T lymphoblast SUP-T1 cells, 12-16 h with compound; Western blot with antibody to cleaved Notch 1 (Val 1744), band of approximately 100 kDa; read-out: estimated IC50
# Experimental: T lymphoblast SUP-T1 cells (CRL-1942, ATCC, Manassas, Va.) are routinely cultured in culture medium comprising RPMI-1640 (Invitrogen, Carlsbad, Calif.) supplemented with 10% Fetal Bovine serum (Sigma Chemical Co., St. Louis, Mo.) and 2 mM glutamine (Invitrogen, Carlsbad, Calif.) and grown at 37° C. at 95%/5% (v/v) air/CO2 in 95% relative humidity (standard cell culture conditions). Cells in culture medium are plated into flat-bottomed tissue culture plates (Corning Costar, Acton, Mass.) Subsequently, a compound of Formula (1) or vehicle (e.g., 0.1% (v/v) DMSO) may be added and plates are incubated for a further 12-16 h under standard cell culture conditions. Subsequently, the presence of active Notch 1 protein (Notch 1 intracellular domain) is determined by Western analysis according to conventional methods. Immunoblotting is performed using a primary antibody to cleaved Notch 1 (Val 1744; Cell Signaling Technology, Danvers, Mass.) and a goat anti-rabbit horseradish peroxidase conjugated secondary antibody (Santa Cruz Biotechnology, Santa Cruz, Calif.). For Western blotting, equal amounts of protein extracted from each sample (20 μg) are loaded into pre-cast 4-12% NuPAGE Tris-Glycine gels (Invitrogen, Carlsbad, Calif.). Proteins are separated by SDS-PAGE and transferred electrophoretically to polyvinylidene diflouride membranes (Invitrogen, Carlsbad, Calif.) using a semi-dry blotter. The membrane is washed briefly in Tris-buffered saline (TBS) (Bio-Rad Laboratories, Hercules, Calif.) and blocked for 1 h in TBS supplemented with 0.05% (v/v) Tween 20 (TBST) and 5% (w/v) dried milk, before being incubated for ˜12 h with primary antibody in TBS supplemented with 0.05% (v/v) Tween 20 (TBST) and 5% (w/v) dried milk. Following washing in TBST, the membrane is incubated with secondary antibody as indicated prior to visualization via enhanced chemiluminescent detection using DuraWest reagent (Pierce Biotechnology, Rockford, Ill.) and is detected with Amersham Hyperfilm MP according to the manufacturer's instructions. […]
row,Structure (SMILES),IC50 [nM]
1,"C[C@H](NC(=O)Cc1cc(F)cc(F)c1)C(=O)N[C@@H]1C(=O)Nc2cc(F)ccc2O[C@@H]1c1ccccc1 [Example 75, N^2-[(3,5-Difluorophenyl)acetyl]-N^1-[(2R,3S)-7-fluoro-4-oxo-2-phenyl-2,3,4,5-tetrahydro-1,5-benzoxazepin-3-yl]-L-alaninamide]",3.98
2,"C[C@H](NC(=O)Cc1cc(F)cc(F)c1)C(=O)N[C@@H]1C(=O)Nc2ccccc2S[C@@H]1c1ccsc1 [Example 100, N^2-[(3,5-Difluorophenyl)acetyl]-N^1-[(2R,3R)-4-oxo-2-(3-thienyl)-2,3,4,5-tetrahydro-1,5-benzothiazepin-3-yl]-L-alaninamide]",50.1
3,"C[C@H](NC(=O)Cc1ccccc1F)C(=O)N[C@@H]1C(=O)Nc2ccccc2O[C@@H]1c1ccccc1 [Example 114, N^2-[(2-Fluorophenyl)acetyl]-N^1-[(2R,3S)-4-oxo-2-phenyl-2,3,4,5-tetrahydro-1,5-benzoxazepin-3-yl]-L-alaninamide]",16.6

# Test system: not given
# Assay: not given
# Details: not given
row,Structure (SMILES),melting point [°C]
1,"C[C@H](NCCc1ccccc1)C(=O)N[C@@H]1C(=O)Nc2ccccc2S[C@@H]1c1ccccc1 (as salt: hydrochloride) [Example 98, N^1-[(2R,3R)-4-Oxo-2-phenyl-2,3,4,5-tetrahydro-1,5-benzothiazepin-3-yl]-N^2-(2-phenylethyl)-L-alaninamide]",184 to 195
2,"C[C@H](NC(=O)Cc1cc(F)cc(F)c1)C(=O)N[C@@H]1C(=O)NCCS[C@@H]1c1ccccc1 [Example 7, N^2-[(3,5-Difluorophenyl)acetyl]-N^1-[(6R,7R)-5-oxo-7-phenyl-1,4-thiazepan-6-yl]-L-alaninamide]",128 to 133
3,"C[C@H](NC(=O)Cc1ccccc1)C(=O)N[C@@H]1C(=O)Nc2ccccc2S[C@@H]1c1ccccc1 [Example 97, N^1-[(2R,3R)-4-Oxo-2-phenyl-2,3,4,5-tetrahydro-1,5-benzothiazepin-3-yl]-N^2-(phenylacetyl)-L-alaninamide]",114 to 124
4,"C[C@H](NC(=O)Cc1cc(F)cc(F)c1)C(=O)N[C@@H]1C(=O)Nc2ccccc2S[C@@H]1c1cccs1 [Example 99, N^2-[(3,5-Difluorophenyl)acetyl]-N^1-[(2S,3R)-4-oxo-2-(2-thienyl)-2,3,4,5-tetrahydro-1,5-benzothiazepin-3-yl]-L-alaninamide]",117 to 119
5,"C[C@H](NC(=O)Cc1cc(F)cc(F)c1)C(=O)N[C@@H]1C(=O)Nc2ccccc2S[C@@H]1c1ccsc1 [Example 100, N^2-[(3,5-Difluorophenyl)acetyl]-N^1-[(2R,3R)-4-oxo-2-(3-thienyl)-2,3,4,5-tetrahydro-1,5-benzothiazepin-3-yl]-L-alaninamide]",117 to 122
6,"C[C@H](NC(=O)Cc1cc(F)cc(F)c1)C(=O)N[C@@H]1C(=O)Nc2ccccc2S[C@@H]1c1ccco1 [Example 101, N^2-[(3,5-Difluorophenyl)acetyl]-N^1-[(2S,3R)-2-(2-furyl)-4-oxo-2,3,4,5-tetrahydro-1,5-benzothiazepin-3-yl]-L-alaninamide]",125 to 130
7,"C[C@H](NC(=O)Cc1cc(F)cc(F)c1)C(=O)N[C@@H]1C(=O)Nc2ccccc2S[C@H]1c1ccoc1 [Example 102, N^2-[(3,5-Difluorophenyl)acetyl]-N^1-[(2S,3R)-2-(3-furyl)-4-oxo-2,3,4,5-tetrahydro-1,5-benzothiazepin-3-yl]-L-alaninamide]",115 to 120
8,"C[C@H](NC(=O)Cc1cc(F)cc(F)c1)C(=O)N[C@@H]1C(=O)Nc2ccccc2S[C@@H]1c1ccc(Br)s1 [Example 103, N^1-[(2S,3R)-2-(5-Bromo-2-thienyl)-4-oxo-2,3,4,5-tetrahydro-1,5-benzothiazepin-3-yl]-N^2-[(3,5-difluorophenyl)acetyl]-L-alaninamide]",139 to 140
9,"C[C@H](NC(=O)Cc1cc(F)cc(F)c1)C(=O)N[C@@H]1C(=O)Nc2ccccc2S[C@@H]1c1cc(Br)cs1 [Example 104, N^1-[(2S,3R)-2-(4-Bromo-2-thienyl)-4-oxo-2,3,4,5-tetrahydro-1,5-benzothiazepin-3-yl]-N^2-[(3,5-difluorophenyl)acetyl]-L-alaninamide]",145 to 155
10,"N[C@@H](Cc1ccccc1)C(=O)N(C(=O)Cc1cc(F)cc(F)c1)[C@@H]1C(=O)Nc2ccccc2S[C@@H]1c1ccccc1 [Example 105, N-[(3,5-Difluorophenyl)acetyl]-N-[(2R,3R)-4-oxo-2-phenyl-2,3,4,5-tetrahydro-1,5-benzothiazepin-3-yl]-L-phenylalaninamide]",115 to 120
11,"O=C(Cc1cc(F)cc(F)c1)NCC(=O)N[C@@H]1C(=O)Nc2ccccc2S[C@@H]1c1ccccc1 [Example 106, N^2-[(3,5-Difluorophenyl)acetyl]-N^1-[(2R,3R)-4-oxo-2-phenyl-2,3,4,5-tetrahydro-1,5-benzothiazepin-3-yl]glycinamide]",125 to 130
12,"CC(C)[C@H](NC(=O)Cc1cc(F)cc(F)c1)C(=O)N[C@@H]1C(=O)Nc2ccccc2S[C@@H]1c1ccccc1 [Example 107, N^2-[(3,5-Difluorophenyl)acetyl]-N^1-[(2R,3R)-4-oxo-2-phenyl-2,3,4,5-tetrahydro-1,5-benzothiazepin-3-yl]-L-valinamide]",110 to 115
13,"CSCC[C@H](NC(=O)Cc1cc(F)cc(F)c1)C(=O)N[C@@H]1C(=O)Nc2ccccc2S[C@@H]1c1ccccc1 [Example 109, N^2-[(3,5-Difluorophenyl)acetyl]-N^1-[(2R,3R)-4-oxo-2-phenyl-2,3,4,5-tetrahydro-1,5-benzothiazepin-3-yl]-L-methioninamide]",85 to 90
14,"O=C(Cc1cc(F)cc(F)c1)N[C@@H](Cc1cc2ccccc2[nH]1)C(=O)N[C@@H]1C(=O)Nc2ccccc2S[C@@H]1c1ccccc1 [Example 110, N^2-[(3,5-Difluorophenyl)acetyl]-3-(1H-indol-2-yl)-N^1-[(2R,3R)-4-oxo-2-phenyl-2,3,4,5-tetrahydro-1,5-benzothiazepin-3-yl]-L-alaninamide]",85 to 90
15,"C[C@H](NC(=O)Cc1ccccc1)C(=O)N[C@@H]1C(=O)Nc2ccccc2O[C@@H]1c1ccccc1 [Example 113, N^1-[(2R,3S)-4-Oxo-2-phenyl-2,3,4,5-tetrahydro-1,5-benzoxazepin-3-yl]-N^2-(phenylacetyl)-L-alaninamide]",122 to 136
16,"C[C@H](NC(=O)Cc1ccccc1F)C(=O)N[C@@H]1C(=O)Nc2ccccc2O[C@@H]1c1ccccc1 [Example 114, N^2-[(2-Fluorophenyl)acetyl]-N^1-[(2R,3S)-4-oxo-2-phenyl-2,3,4,5-tetrahydro-1,5-benzoxazepin-3-yl]-L-alaninamide]",115 to 135
17,"C[C@H](NC(=O)Cc1cccc(F)c1)C(=O)N[C@@H]1C(=O)Nc2ccccc2O[C@@H]1c1ccccc1 [Example 115, N^2-[(3-Fluorophenyl)acetyl]-N^1-[(2R,3S)-4-oxo-2-phenyl-2,3,4,5-tetrahydro-1,5-benzoxazepin-3-yl]-L-alaninamide]",130 to 140
18,"C[C@H](NC(=O)Cc1ccc(F)cc1)C(=O)N[C@@H]1C(=O)Nc2ccccc2O[C@@H]1c1ccccc1 [Example 116, N^2-[(4-Fluorophenyl)acetyl]-N^1-[(2R,3S)-4-oxo-2-phenyl-2,3,4,5-tetrahydro-1,5-benzoxazepin-3-yl]-L-alaninamide]",130 to 140
